# Reference: patent US11198741B2, “Medicines for topic use based on sulfated hyaluronic acid as activating or inhibiting agent of the cytokine activity” (Fidia Farmaceutici S.p.A., priority 2009, dated 2021)
# Key:
# IL-1 receptor = target: T1, IL-1 receptor (Mus musculus, UniProt P13504); assay: Inhibition of the binding of 125I-IL-1 to its receptor in 3T3 fibroblasts (Radioligand Binding); settings: 3T3 cells of mouse, 125I-IL-1 10 pM, sample 1 mg/ml, 37° C. 2 hours; both medium and low MW
# T1 construct: the line of murine fibroblasts 3T3 was used, sensitive to the cytotoxic activity of IL-1, expressing its relative receptor; endogenous in cells; host or cells: 3T3 murine fibroblasts (whole cells)
# T1 sequence (P13504 20-576): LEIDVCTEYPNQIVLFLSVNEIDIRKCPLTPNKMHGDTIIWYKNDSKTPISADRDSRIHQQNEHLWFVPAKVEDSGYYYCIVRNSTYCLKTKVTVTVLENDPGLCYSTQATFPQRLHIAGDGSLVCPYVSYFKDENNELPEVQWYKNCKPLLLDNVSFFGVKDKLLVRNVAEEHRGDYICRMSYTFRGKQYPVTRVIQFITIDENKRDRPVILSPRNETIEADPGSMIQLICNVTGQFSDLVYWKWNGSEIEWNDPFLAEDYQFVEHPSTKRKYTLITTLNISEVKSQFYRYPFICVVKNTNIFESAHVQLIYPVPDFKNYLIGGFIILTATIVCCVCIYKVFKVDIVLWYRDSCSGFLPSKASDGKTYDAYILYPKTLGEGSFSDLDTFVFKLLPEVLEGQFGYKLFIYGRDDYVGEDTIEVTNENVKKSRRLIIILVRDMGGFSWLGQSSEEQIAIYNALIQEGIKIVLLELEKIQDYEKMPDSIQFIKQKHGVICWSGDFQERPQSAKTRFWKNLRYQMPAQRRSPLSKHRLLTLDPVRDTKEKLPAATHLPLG
# Source text: These experiments were effected to evaluate the effectiveness of the samples tested (prepared according to Examples 1-3 and 4) on the capacity of inhibiting the binding of IL-1 to its receptor expressed by 3T3 cells of mouse, normally used in vitro for this type of experiment, carried out with iodinated cytokine components for an evaluation in Radioligand Binding assays. The experimental procedure was effected as described in Chin J et al., J Exp Med, 1987, 165:70-86. In short, the line of murine fibroblasts 3T3 was used, sensitive to the cytotoxic activity of IL-1, expressing its relative receptor. […] At the end of the incubation, the cells were washed with phosphate buffer, then dissolved in 2.5 M of NaOH and counted in a γ-counter.
# [1] = tested on: Herpes Simplex Virus-2 (HSV-2: G, 196 and Lyons strain); assay: Inhibition of viral cytopathogenicity in E6SM fibroblast cells, HSV-2; type: cell-based; settings: 2nd day of incubation, numbers only in FIG. 10
# IL-6 receptor = target: T2, IL-6 receptor (Homo sapiens, UniProt P08887); assay: Inhibition of the binding of 125I-IL-6 to its receptor in U266 myeloma cells (Radioligand Binding); settings: 125I-IL-6 0.08 nM, sample 1 mg/ml, 4° C. 16 hours, both medium and low MW
# T2 construct: the line of human myeloma U266 was used, sensitive to the cytotoxic activity of IL-6, expressing its relative receptor; endogenous in cells; host or cells: U266 human myeloma (whole cells)
# T2 sequence (P08887 20-468): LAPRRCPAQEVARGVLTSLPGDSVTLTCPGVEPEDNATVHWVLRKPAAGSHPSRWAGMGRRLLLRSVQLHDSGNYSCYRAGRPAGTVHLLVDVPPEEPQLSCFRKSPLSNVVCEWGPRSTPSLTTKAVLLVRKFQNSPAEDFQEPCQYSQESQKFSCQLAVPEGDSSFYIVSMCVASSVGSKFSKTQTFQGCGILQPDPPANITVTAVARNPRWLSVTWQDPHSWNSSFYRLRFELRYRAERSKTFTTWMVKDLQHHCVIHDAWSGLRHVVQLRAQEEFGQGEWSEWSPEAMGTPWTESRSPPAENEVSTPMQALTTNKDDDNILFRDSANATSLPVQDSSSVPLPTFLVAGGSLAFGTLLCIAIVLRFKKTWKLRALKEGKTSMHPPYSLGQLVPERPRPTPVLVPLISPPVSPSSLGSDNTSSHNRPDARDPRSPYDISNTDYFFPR
# Source text: These experiments were effected to evaluate the effectiveness of the samples tested (prepared according to Examples 1-3 and 4) on the capacity of inhibiting the binding of IL-6 to its receptor expressed in human myeloma U266, normally used in vitro for this type of experiment, carried out with iodinated cytokine components for an evaluation in Radioligand Binding assays. The experimental procedure was effected as described in Taga T. et al., J Exp Med, 1987, 166:967-981. In short, the line of human myeloma U266 was used, sensitive to the cytotoxic activity of IL-6, expressing its relative receptor. […] At the end of the incubation, the cells were washed with phosphate buffer, centrifuged at 9,000 rpm and the pellet counted in a γ-counter.
# IL-7 = assay: Protein synthesis of IL-7 in human PBMC (SearchLight array); settings: not stimulated or stimulated with LPS or PHA (10 μg/ml), 24 hours, FIG. 7: 1 mg/ml, vs HA
# Method: (§1) For these experimentations, mononucleate cells of human peripheral blood (PBMC) were adopted, deriving from various donors for evaluating the effect of HAS on the production of the cytokines listed above, using:
# (§2) The separation of the PBMC (Bøyum A., Scand J Clin Lab Invest 21 Suppl, 1968, 97:77-89) was effected using the product Ficoll-Paque PLUS (GE Healthcare) and following the protocol indicated by the supplier. At day zero 100,000 cells were plated per well (using plates with 96 wells) in 200 μl of medium RPMI 1640, to which 10% of fetal bovine serum, HEPES 10 mM, Glutamine 2 mM, 1% Penicillin-Streptomycin 100 U/ml, had been added. […] The cells were treated separately with the three compounds at a concentration of 0.1 mg/ml or 1 mg/ml. After 24 hours of incubation at 37° C. (5% CO2), 100 μl of supernatant were taken from each well in order to analyze the production of IL-2, IL-7, IL-10 and IL-12.
# (§3) The quantification of the inflammation mediators was effected by means of the SearchLight® technology, using a Custom Human 9-flex Array plate following the protocol indicated by the supplier in the technical card.
# [2] = tested on: Cytomegalovirus (CMV: AD-169 and Davis strain); assay: Inhibition of Cytomegalovirus plaque formation in HEL cells; type: cell-based; settings: numbers only in FIG. 11
# Method: The activity of the samples tested was determined by evaluating the inhibition of the cytopathogenicity determined by Cytomegalovirus (CMV: AD-169 and Davis strain) using the previous protocol. The antiviral activity was tested vs HEL cells (pulmonary embryonic cells) and was expressed as the concentration required for inhibiting the number of plaques formed by the above virus by 50%.
# [3] = tested on: Herpes Simplex Virus-1 (HSV-1: KOS, F and McIntyre strain); assay: Inhibition of viral cytopathogenicity in E6SM fibroblast cells, HSV-1; type: cell-based; settings: 2nd day of incubation, numbers only in FIG. 10
# IL-12 = assay: Protein synthesis of IL-12 in human PBMC (SearchLight array); settings: not stimulated or stimulated with LPS or PHA (10 μg/ml), 24 hours, FIG. 8: 1 mg/ml, vs HA
# Method: as §1, §2, §3
substance,measurement,setting,value
sulfated hyaluronic acid degree 3 [HAS3],inhibition of the binding of IL-1 to its receptor,IL-1 receptor,30%
same,antiviral activity (inhibition of the cytopathogenicity of the virus) vs HSV-2,[1],powerful antiviral action
same,inhibition of the binding of IL-6 to its receptor,IL-6 receptor,100%
same,synthesis of IL-7,IL-7,significantly reducing
same,antiviral activity vs Cytomegalovirus (inhibition of the number of plaques),[2],clear and significant positive result
same,antiviral activity (inhibition of the cytopathogenicity of the virus) vs HSV-1,[3],powerful antiviral action
same,synthesis of IL-12,IL-12,significantly reducing
